This passage reports IC50 and EC50 results from ChEMBL document CHEMBL5120979, “Oral Nonpeptidic, Noncovalent Triazine Coronavirus Main Protease Inhibitors for Treating COVID-19” (ACS Med Chem Lett, 2022).

Experiment [1] deals with Replicase polyprotein 1ab (Severe acute respiratory syndrome coronavirus 2, UniProt P0DTD1). The experiment is described as follows: Inhibition of recombinant SARS-CoV-2 main protease usingDABCYLKTSAVLQSGFRKME(EDANS)-NH2 fluorogenic peptide substrate by FRET assay.
The subject of a further experiment is SARS-CoV-2. The experiment is described as follows: Antiviral activity against SARS-CoV-2 infected in African green monkey VeroE6 cells expressing TMPRSS2. In kind it is functional, organism-based. The conditions noted are these: Severe acute respiratory syndrome coronavirus 2, Vero C1008.

By IC50 is commonly meant the midpoint of a concentration-inhibition curve. The term EC50 denotes the concentration giving half of the maximal effect. In the case of `Cn1cnc(Cn2c(=O)nc(Nc3cc4cn(C)nc4cc3Cl)n(Cc3cc(Cl)c(F)c(Cl)c3)c2=O)n1`, the IC50 in experiment [1] is 5 nM. For the same compound, the EC50 in the experiment on SARS-CoV-2 came to 750 nM.
`Cc1cnc(Cn2c(=O)nc(Nc3cc4cn(C)nc4cc3Cl)n(Cc3cc(F)c(F)cc3F)c2=O)nc1` gave an EC50 in the experiment with SARS-CoV-2 of 5850 nM.
Turning to `Cn1cc2cc(Nc3nc(=O)n(Cc4cc5ccsc5[nH]c4=O)c(=O)n3Cc3cc(F)c(F)c(F)c3)c(Cl)cc2n1`, in experiment [1], the IC50 turned out to be 4 nM. This compound also yielded an EC50 in the experiment on SARS-CoV-2 of 321 nM.
In the experiment with SARS-CoV-2, `CCn1cc2cc(Nc3nc(=O)n(Cc4ncn(C)n4)c(=O)n3Cc3cc(F)c(F)cc3F)c(Cl)cc2n1` returned an EC50 of 533 nM.
On the same count and under the same terms, the result for `Cc1cncc(-n2c(=O)nc(Nc3cc4cn(C)nc4cc3Cl)n(Cc3cc(F)c(F)c(F)c3)c2=O)c1` reads 177 nM; that for `Cn1cnc(Cn2c(=O)nc(Nc3cc4c(F)n(C)nc4cc3Cl)n(Cc3cc(F)c(F)cc3F)c2=O)n1`, 750 nM.
Turning to `Cn1cnc(Cn2c(=O)nc(NC3=CC4CCOC4C=C3Cl)n(Cc3cc(F)c(F)c(F)c3)c2=O)n1` (stereo not given), the IC50 in experiment [1] is 15 nM. This compound yielded an EC50 in the experiment with SARS-CoV-2 of 385 nM.
As to `Cn1cnc(Cn2c(=O)nc(Nc3cc4cn(C)nc4cc3Cl)n(Cc3cc(F)c(F)c(F)c3F)c2=O)n1`, the IC50 in experiment [1] was 10 nM. The compound also registered an EC50 with SARS-CoV-2 of 395 nM.
Consider `Cn1cnc(Cn2c(=O)nc(Nc3cc4cn(C)nc4cc3Cl)n(Cc3cc(F)c(F)c(F)c3)c2=O)n1`, for which the midpoint of the response in the experiment with SARS-CoV-2, the EC50, lay at 450 nM.
Still for that read-out and setting: the result for `Cn1cc2cc(Nc3nc(=O)n(Cc4cc(Cl)ccn4)c(=O)n3Cc3cc(F)c(F)cc3F)c(Cl)cc2n1` reads 1520 nM; that for `Cn1cnc(Cn2c(=O)nc(Nc3cc4cn(C)nc4cc3Cl)n(Cc3cccc4ccccc34)c2=O)n1`, 22500 nM.
On to `Cc1cncc(-n2c(=O)nc(Nc3cc4cn(C)nc4cc3Cl)n(Cc3cc(C#N)c(F)cc3C)c2=O)c1`, for which the IC50 in experiment [1] came to 2 nM. This compound came in with an EC50 in the experiment with SARS-CoV-2 of 35 nM.
The like results for `Cn1cnc(Cn2c(=O)nc(Nc3cc4cn(C)nc4cc3Cl)n(Cc3cc(F)c(F)c(F)c3)c2=O)c1` were, in that order, 6 nM and 1030 nM.
The like results for `Cn1cnc(Cn2c(=O)nc(Nc3cc4cn(CC(F)F)nc4cc3Cl)n(Cc3cc(F)c(F)cc3F)c2=O)n1` were, in that order, 9 nM and 342 nM.
`CCNC(=O)Cn1c(=O)nc(Nc2cc3cn(C)nc3cc2Cl)n(Cc2cc(F)c(F)c(F)c2)c1=O`: in the experiment on SARS-CoV-2, the EC50 was 11500 nM.
`Cn1cc2cc(Nc3nc(=O)n(-c4cncc5c4COC5)c(=O)n3Cc3cc(Cl)c(F)cc3F)c(Cl)cc2n1` showed an EC50 with SARS-CoV-2 of 680 nM.
Same read-out and setting: the result for `Cn1cc2cc(Nc3nc(=O)n(-c4cncc(C(F)(F)F)c4)c(=O)n3Cc3cc(F)c(F)c(F)c3)c(Cl)cc2n1` reads 6600 nM.
On the same count and under the same terms, the result for `Cc1cncc(-n2c(=O)nc(Nc3cc4cn(C)nc4cc3Cl)n(Cc3cc(F)c(F)cc3F)c2=O)c1` reads 131 nM.
